According to patent US10494334B2, “Compounds to inhibit calcium/calmodulin dependent protein kinase II and applications thereof” (priority 2018, dated 2019):

Experiments:
[1] = system: DENV-2-eGFP reporter virus; test: Cell-based anti-DENV-2 screening with DENV-2-eGFP reporter virus in BE(2)C cells; design: species or system type 2 dengue virus; details: Dengue virus, DENV2, BE(2)-C, 24 h, read-out: DENV-2 infection %
BE(2)C cells = test: XTT cell proliferation assay; type: cell-based; details: Homo sapiens, 6.25 μM compound, compared to solvent control
Experimental: The cytotoxicity of candidate compounds to BE(2)C cells was evaluated by use of the cytotoxicity detection kit (LDH) (Roche), cell proliferation kit (XTT) (Roche), and Trypan blue cell counting assay. Briefly, cells were treated overnight with the candidate compounds at the indicated doses and subjected to the three assays. For LDH and XTT assays, light absorbance of the sample at 490 nm was determined by using an enzyme-linked immunosorbent assay (ELISA) reader (Molecular Devices). For Trypan blue cell counting assay, the number of viable cells was determined by use of haemocytometer. Data was normalized to solvent control and presented as a percentage.

purified human CaMKII = target: T1, purified human CaMKII (Homo sapiens, UniProt Q9UQM7); test: CaMKII biochemical assay (CycLex CaM kinase II Assay Kit); details: syntide-2 substrate, Ca2+, calmodulin, Mg2+, ATP; normalized to solvent control
T1 construct: MBL Internationl Corp (assay kit)
T1 sequence (Q9UQM7 with tags, fused parts or gaps): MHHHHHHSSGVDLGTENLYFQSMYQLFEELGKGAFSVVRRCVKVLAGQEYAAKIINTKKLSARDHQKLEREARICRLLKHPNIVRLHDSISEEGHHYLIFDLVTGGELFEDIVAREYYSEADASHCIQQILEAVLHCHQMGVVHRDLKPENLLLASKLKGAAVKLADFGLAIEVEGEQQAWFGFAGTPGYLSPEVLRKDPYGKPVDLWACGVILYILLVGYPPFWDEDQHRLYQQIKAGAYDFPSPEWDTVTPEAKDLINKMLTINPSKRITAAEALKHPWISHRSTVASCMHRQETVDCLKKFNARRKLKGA
Experimental: A commercial CaMKII inhibitor, KN-62 (Selleckchem, S7422) was used as a positive control. Kinase reaction buffer without Ca^2+ was used as a negative control. The assay wells of the microtiter plate were then incubated with HRP-conjugated-anti-phospho-syntide-2 antibody, followed by addition of syntide-2. The phosphorylation reaction was stopped after incubation at room temperature for 15 minutes. Sample absorbance at 450 nm was determined by use of an ELISA reader (Molecular Devices). Data was normalized to solvent control and presented as a percentage.

DENV-2 NGC-N strain = test: Animal study, DENV-2-infected Stat1-deficient mice; type: in vivo; details: for overall survival: 6-day treatment
Experimental: (§1) The mouse experiments were approved by the Academia Sinica Institutional Animal Care and Use Committee and performed in accordance with the guidelines. Infection was performed in mice under isoflurane anesthesia to minimize animal suffering. The DENV-2 New Guinea C strain serially passaged in mouse brain (NGC-N), kindly provided by Dr. Ching-Juh Lai (National Institutes of Health, USA) and ZIKV PRVABC59 strain were used in the animal study. Groups of 6-week-old Stat1^−/− mice were intravenously infected in the tail with 1×10^5 PFU of DENV-2 per mouse or subcutaneously infected in the footpad with 5×10^4 PFU of ZIKV per mouse. […] The mice were checked daily for severe symptoms including limb paralysis. Euthanasia of mice with severe limb paralysis was performed as the endpoint of animal survival. Mice survival was presented as percentage of survival. Mouse serum samples were collected on day 3 after infection by phlebotomy from facial vein, and the virus load was determined by plaque-forming assay.
(§2) Data are presented as mean±standard deviation and were compared by ANOVA and Bonferroni post-hoc test unless otherwise specified. Statistical significance was set at P values of <0.05 or <0.01. A survival curve was descriptively analyzed by use of SigmaPlot v10.0 (Systat software). The median survival time (T50) and P values, based on log-rank test, were determined by use of Prism v5.0 (GraphPad software). For Western blotting, the band intensity was quantified by use of ImageJ software (National Institutes of Health).

ZIKV PRVABC59 strain = test: Animal study, ZIKV-infected Stat1-deficient mice; type: in vivo; details: for median survival time (T50): 8 mg/kg of body weight/day oral
Experimental: as §1, §2

ZIKV = test: Virus binding/entry assays, ZIKV on BE(2)C cells
Experimental: For the virus entry assay, BE(2)C cells were first adsorbed with DENV-2 or ZIKV at 4° C. for 90 minutes. […] Thereafter, the cells were treated with an acidic glycine solution (0.1 M, pH=3) for 5 minutes to inactivate non-internalized virus and washed with cold Hank's balanced salt solution (HBSS). The cells were harvested with cell scrapers, and the adsorbed viruses were released by passing the cells through a 27-G needle 7 times. Cell lysates were centrifuged at 12,000 rpm for 1 minute, and the supernatant was used for plaque-forming assay to determine the level of virus binding and/or entry.

DENV-2 = test: Virus binding/entry assays, DENV-2 on BE(2)C cells; type: cell-based, type 2 dengue virus
DENV-2 PL046 strain = test: Antiviral assay, wild type DENV-2 in BE(2)C cells (IFA, Western blotting, plaque-forming assay); type: cell-based, type 2 dengue virus; details: three hours of treatment during viral adsorption (0-3 hpi), MOI 1, Western blot
[2] = 8-hours-delay treatment, 4 mg/kg of body weight/day oral
[3] = immediate treatment, 2 mg/kg of body weight/day oral
[4] = immediate treatment, 4 mg/kg of body weight/day oral
[5] = serum on day 3 after infection, plaque-forming assay, dose-dependent
[6] = 37° C. for 60 minutes after adsorption, dose-dependent
[7] = adsorption at 4° C. for 90 minutes

Compound	activity at 3.125 µM [1]	viability at 6.25 µM (BE(2)C cells)	melting point	other results
COc1ccc(S(=O)(=O)N(CCCC(O)c2ccc(F)cc2)c2ccccc2)cc1 (centres unmarked) [Compound 2, N-(4-(4-fluorophenyl)-4-hydroxybutyl)-4-methoxy-N-phenylbenzenesulfonamide]	48.5%	76.3%	–	–
COc1ccc(S(=O)(=O)N(CCCC(=O)C2C3CC4CC(C3)CC2C4)c2ccccc2)cc1 (centres unmarked) [Compound 10, N-(4-(adamantan-2-yl)-4-oxobutyl)-4-methoxy-N-phenylbenzenesulfonamide]	51.1%	96.7%	117 to 118 °C	–
Cc1ccc(S(=O)(=O)N(CCCC(=O)C2CCCCCC2)c2ccccc2)cc1 [Compound 13, N-(4-cycloheptyl-4-oxobutyl)-4-methyl-N-phenylbenzenesulfonamide]	76.9%	99.5%	–	–
COc1ccc(S(=O)(=O)N(C)CCCC(=O)c2ccc(F)cc2)cc1 [Compound 4, N-(4-(4-fluorophenyl)-4-oxobutyl)-4-methoxy-N-methylbenzenesulfonamide]	101%	106%	89 to 90 °C	–
COc1ccc(S(=O)(=O)N(CCCC(=O)C2CCCC2)c2ccccc2)cc1 [Compound 8, N-(4-cyclopentyl-4-oxobutyl)-4-methoxy-N-phenylbenzenesulfonamide]	25.1%	–	89 to 90 °C	–
COc1ccc(S(=O)(=O)N(CCCC(=O)C2CCCCCC2)c2ccc(C3CCCCC3)cc2)cc1 [Compound 16, N-(4-cycloheptyl-4-oxobutyl)-N-(4-cyclohexylphenyl)-4-methoxybenzenesulfonamide]	13.8%	–	103 to 104 °C	–
COc1ccc(S(=O)(=O)N(CCCC(=O)C2CCCCC2)c2ccccc2)cc1 [Compound 6, N-(4-cyclohexyl-4-oxobutyl)-4-methoxy-N-phenylbenzenesulfonamide]	63.3%	107%	81 to 82 °C	–
COc1ccc(S(=O)(=O)NCCCC(=O)c2ccc(F)cc2)cc1 [Compound 3]	–	–	84 to 85 °C	–
O=C(CCCN(c1ccccc1)S(=O)(=O)c1ccc(OC(F)(F)F)cc1)C1CCCC1 [Compound 11, N-(4-cyclopentyl-4-oxobutyl)-N-phenyl-4-(trifluoromethoxy)benzenesulfonamide]	118%	92.4%	69 to 70 °C	–
CN([C@@H](Cc1ccc(OS(=O)(=O)c2cccc3cnccc23)cc1)C(=O)N1CCN(c2ccccc2)CC1)S(=O)(=O)c1cccc2cnccc12 [KN-62, reference compound]	–	–	–	IC50 (purified human CaMKII): ~1030 nM
O=C(CCCN(c1ccccc1)S(=O)(=O)c1ccc(Oc2ccccc2)cc1)C1CCCCCC1 [Compound 12, N-(4-cycloheptyl-4-oxobutyl)-4-phenoxy-N-phenylbenzenesulfonamide]	73.4%	95.5%	127 to 128 °C	–
COc1ccc(S(=O)(=O)N(CCCC(=O)C2CCC2)c2ccccc2)cc1 [Compound 7, N-(4-cyclobutyl-4-oxobutyl)-4-methoxy-N-phenylbenzenesulfonamide]	33%	93.9%	–	IC50 (purified human CaMKII): ~600 nM
COc1ccc(S(=O)(=O)N(CCCC(=O)C2CCCCCC2)C2CCCCC2)cc1 [Compound 14, N-(4-cycloheptyl-4-oxobutyl)-N-cyclohexyl-4-methoxybenzenesulfonamide]	65.7%	97.5%	–	–
COc1ccc(S(=O)(=O)N(CCCC(C)=O)c2ccccc2)cc1 [Compound 5, 4-methoxy-N-(4-oxopentyl)-N-phenylbenzenesulfonamide]	101%	106%	81 to 82 °C	–
COc1ccc(S(=O)(=O)N(CCCC(=O)c2ccc(F)cc2)c2ccccc2)cc1 [Compound 1, N-(4-(4-fluorophenyl)-4-oxobutyl)-4-methoxy-N-phenylbenzenesulfonamide]	39.3%	56.1%	93 to 94 °C	–
COc1ccc(S(=O)(=O)N(CCCC(=O)C2CCCCCC2)c2ccc3c(c2)CCCC3)cc1 [Compound 15, N-(4-cycloheptyl-4-oxobutyl)-4-methoxy-N-(5,6,7,8-tetrahydronaphthalen-2-yl)-benzenesulfonamide]	21.5%	104%	111 to 112 °C	–
COc1ccc(S(=O)(=O)N(CCCC(=O)C2CCCCCC2)c2ccccc2)cc1 [Compound 9, N-(4-cycloheptyl-4-oxobutyl)-4-methoxy-N-phenylbenzenesulfonamide]	9.6%	–	–	median survival time (T50) (DENV-2 NGC-N strain; 8-hours-delay treatment, 2 mg/kg of body weight/day oral): 14 days; median survival time (T50) (DENV-2 NGC-N strain; [2]): 22 days; mice protected from mortality (DENV-2 NGC-N strain; [2]): 40%; median survival time (T50) (DENV-2 NGC-N strain; [3]): 15 days; overall animal survival (DENV-2 NGC-N strain; [3]): minor effect; overall survival (DENV-2 NGC-N strain; [4]): 60%; overall survival (DENV-2 NGC-N strain; immediate treatment, 8 mg/kg of body weight/day oral): 60%; viral load (DENV-2 NGC-N strain; [5]): significantly reduced; overall survival (ZIKV PRVABC59 strain; 8-hours-delay treatment): minor effect; median survival time (T50) (ZIKV PRVABC59 strain; 8-hours-delay treatment): 10 days; overall survival (ZIKV PRVABC59 strain; [4]): did not improve; median survival time (T50) (ZIKV PRVABC59 strain; immediate treatment): 11 days; viral load (ZIKV PRVABC59 strain; [5]): significantly reduced; level of ZIKV entry (ZIKV; [6]): significantly reduced; level of ZIKV binding/entry (ZIKV; MOI 10, 90 minutes at room temperature): significantly reduced; ZIKV binding to cells (ZIKV; [7]): no effect; level of DENV-2 entry (DENV-2; [6]): significantly reduced; DENV-2 binding to cells (DENV-2; [7]): no effect; viral-NS3 expression (DENV-2 PL046 strain): dose-dependently reduced
